Test results published in patent US4618605A, “Process for the production of β-elemonic acid and pharmaceutical preparations containing said acid” (priority 1983, dated 1986).
Like-named read-outs stand apart in the source and are kept apart here.

Columns and labels:
CVF paw edema = assay: rat paw edema induced by cobra venom factor (CVF); format: in vivo; conditions: for ED30: Rattus norvegicus, po, 3 h, read-out: ED30 CVF edema; for Inhibition effect (%): rat, after three hours, vs control group
Description: 2. As a further experiment for testing the antiphlogistic effectiveness there was used rat paw edema induced by means of cobra venom factor (CVF). Since CVF produces inflammation by way of activation of the complementary system, inhibiting substances could open up a new kind of working principle for application in inflammatory illnesses.
Edema was provoked by subplantar injection of CVF (10 units in 1 ml NaCl solution 0.9%) in an amount of 0.1 ml of solution per paw, into one hind paw of each of a number of rats weighing from 120-160 g. After administration of the test substance in a volume of 10 ml/kg body weight the volume of the paw was determined in an overflow device. After three hours the final value was determined. For each dose the test was carried out with five test and five control animals of one sex, and repeated with the same number of animals of the opposite sex. The result was expressed as percentage inhibition of the edema compared with the control group.

[1] = therapeutic range (therapeutic indices); format: in vivo; conditions: for selectivity ratio: in vivo, po
Description: An assessment of the effectiveness of elemonic acid was compared with known substances. A quantitative assessment of β-elemonic acid in comparison with known antiphlogistic substances was made possible by determining the therapeutic ranges, i.e. by the safety with which an active ingredient can be used. […] The therapeutic range is given (1) by the ratio between the LD50 and the ED30 in the CVF paw oedema and (2) by the ratio between the dose threshold value of stomach intolerance and the ED50 in the arthritis model. The ED30 and the ED50 values were determined with the aid of a regression line: […]

[2] = acute peroral toxicity in the mouse; conditions: in vivo
Description: Determination of toxicity of β-elemonic acid was carried out on the mouse and the rat. Acute peroral toxicity in the mouse: 4.640 mg/kg.

stomach mucosa = assay: induction of stomach ulcers (acute stomach mucous tolerability); format: in vivo, Wistar rats; conditions: for Threshold dose Acute stomach mucous tolerability: p.o.; for Effect (ulcer induction): single administration, after 3.5 hours
Description: The most frequent side effect in known anti-rheumatics is poor gastrointestinal tolerance with ulcer induction. For this reason β-elemonic acid was examined for the induction of ulcers. The determination of ulcer formation was made according to W. J. R. Whittle, Brit. J. Pharmacology, 1975, Vol. 55, pp. 242-243; L. Mariani, Europ. J. Toxicol. Eviron., 1975, Vol. 8, pp. 335-39; and R. Menguy and L. Desbaillets, Proc. Soc. Bio., Vol. 125, p. 1108. In the tests, for each dose and control ten male Wistar rats (120-150 g, kept fasting for 16 hours) were used. The provocation of bleeding stomach ulcer took place by oral application of the active ingredient. The animals were sacrificed after 3.5 hours, the stomach removed, opened along the larger curvature and stretched on a foam polystyrene plate. The median ulcer factor of the test group and the control group was determined.

adjuvant arthritis [3] = assay: adjuvant arthritis test of Pearson, prophylactic application; format: in vivo, Wistar rats; conditions: for ED50: Rattus norvegicus, po, 408 h, read-out: ED50 Adjuvant arthritis prophyl.; for antiphlogistic activity (in words): appraisal from ED50 values in the arthritis test; for inhibition values (%): prophylactic
Description: 3. The adjuvant arthritis test of C. M. Pearson, Proc. Soc. Exp. Biol. 91, 95-101 (1956) was carried out as a further relevant animal experiment for the examination of anti-rheumatic substances.
(§1) Ten Wistar rats weighing from 120-150 g were used for each dose. The same number of animals served as a control. Arthritis was induced with 0.5 ml Freud's adjuvant, by subplantar injection. The test lasted 17 days. At the beginning of the test the paw volume of the non-injected hind paw was determined and this was used as a starting value. Further volume measurements were carried out on the 14th and 17th days of the test. For the result the difference between the starting and finishing volumes of the paw, both of the test group and of the control group, was obtained and the inhibition expressed as a percentage. With daily administration from the time of induction of arthritis onwards (prophylactic application) the following inhibition values (%) were obtained: […]

carrageenin paw edema = assay: carrageenin rat paw edema test of Hillebrecht (antiphlogistic effectiveness); format: in vivo; conditions: for Inhibiting effect (%): rat, after three hours, vs control group
Description: 1. The antiphlogistic effectiveness was determined by the rat paw edema test of Hillebrecht (J. Hillebrecht, Arzneim, Forsch. 1954, Vol. 4, p. 607). In this test, rats weighing from 120 g-160 g were given a subplantar dose of carrageenin (0.5% in 0.9% NaCl solution) in an amount of 0.1 ml of solution per paw, using one hind paw of each rat, to produce edema. After administration of the test substance, which as a rule should not exceed a volume of 10 ml/kg body weight, the volume of the paw was determined in an overflow device. After three hours the final value was determined. For each dosage level the experiment was performed with five test and five control animals of one sex and repeated with the same number of animals of the opposite sex. The result is expressed as the percentage inhibition of edema as compared with the control group.

young rats = assay: comparative side-effect investigation with prednisolone on young rats, 8 days; format: in vivo, rat; parameters: key: 0: no effect; (-): weak inhibition; -: definite inhibition; ---: very strong inhibition
Description: β-Elemonic acid was compared with prednisolone for determining side-effects. Known antiphlogistic substances can cause undesired side-effects, some of which arise even at therapeutic doses. For this reason a comparative investigation of β-elemonic acid with prednisolone was undertaken (H. J. Lee, M. R. I. Soliman in Science 215 989-991, 1982). Carried out on young rats, the duration of application was 8 days. β-Elemonic acid was administered orally up to a dosage of 316 mg/kg body weight, and prednisolone intramuscularly up to a dosage of 5 mg/kg body weight.

adjuvant arthritis [4] = assay: adjuvant arthritis test, therapeutic application beginning ten days after induction; format: in vivo, Wistar rats; conditions: for inhibition values (%): therapeutic
rats = assay: dose-range study on rats, daily application for 14 days; format: in vivo, rat; conditions: daily for 14 days, 681.0 and 1,000.0 mg/kg body weight
adrenal gland = adrenal gland weights at termination of the adjuvant arthritis (17-day administration); format: in vivo, Wistar rats; conditions: 17-day prophylactic administration
Description: as §1

[5] = LD50 / ED30 in the CVF paw oedema, read-out: Therapeutic index 1 (3./1.)
[6] = rat, dose threshold value of stomach intolerance / ED50 in the arthritis model, read-out: Therapeutic index 2 (4./1.)
[7] = po, Table 9, read-out: LD50 Mouse

SMILES: COc1ccc2c(c1)c(CC(=O)O)c(C)n2C(=O)c1ccc(Cl)cc1 [Indomethacin, reference compound]
- ED30 (CVF paw edema): 4.58 mg/kg
- selectivity ratio [1, 5]: 8.73
- selectivity ratio [1, 6]: 21.6
- LD50 [2, 7]: 40 mg/kg
- Threshold dose Acute stomach mucous tolerability (stomach mucosa): 5.62 mg/kg
- ED50 (adjuvant arthritis [3]): 0.26 mg/kg
- antiphlogistic activity (in words) (adjuvant arthritis [3]): strongly active

SMILES: CCCCC1C(=O)N(c2ccccc2)N(c2ccccc2)C1=O [Phenylbutazone]
- Inhibition effect (%) (CVF paw edema; 1 mg/kg p.o.): +10%
- Inhibition effect (%) (CVF paw edema; 10 mg/kg p.o.): -28%
- Inhibition effect (%) (CVF paw edema; 100 mg/kg p.o.): -34%
- ED30 (CVF paw edema): 37.7 mg/kg
- inhibition of CVF edema (in words) (CVF paw edema; compared with β-elemonic acid): weaker inhibition values
- Inhibiting effect (%) (carrageenin paw edema; 100 mg/kg p.o.): -41%
- reduction of edema (in words) (carrageenin paw edema; carrageenin paw edema test in rats): a reduction of edema only at a fairly high dosage level
- LD50 ([2]; oral, comparison, read-out: LD50): 465 mg/kg
- inhibition values (%) (adjuvant arthritis [3]; 14th day p.i., 10 mg/kg p.o.): -42%
- inhibition values (%) (adjuvant arthritis [3]; 14th day p.i., 31,6 mg/kg p.o.): -57%
- inhibition values (%) (adjuvant arthritis [3]; 14th day p.i., 82,5 mg/kg p.o.): -58%
- inhibition values (%) (adjuvant arthritis [3]; 17th day p.i., 10 mg/kg p.o.): -31%
- inhibition values (%) (adjuvant arthritis [3]; 17th day p.i., 31,6 mg/kg p.o.): -51%
- inhibition values (%) (adjuvant arthritis [3]; 17th day p.i., 82,5 mg/kg p.o.): -43%
- ED50 (adjuvant arthritis [3]; p.o., regression line): 47.5 mg/kg
- antiphlogistic activity (in words) (adjuvant arthritis [3]): weakly active

SMILES: C[C@]12C=CC(=O)C=C1CC[C@@H]1[C@@H]2[C@@H](O)C[C@@]2(C)[C@H]1CC[C@]2(O)C(=O)CO [Prednisolone, reference compound]
- Blood picture Leucocytes (young rats; 5 mg/kg intramuscularly): -
- Blood picture Lymphocytes (young rats; 5 mg/kg intramuscularly): -
- Body weight development (young rats; 5 mg/kg intramuscularly): -
- Liver weights (young rats; 5 mg/kg intramuscularly): 0
- Thymus weight (young rats; 5 mg/kg intramuscularly): ---
- Blood picture Leucocytes (young rats; 2,5 mg/kg intramuscularly): 0
- Blood picture Lymphocytes (young rats; 2,5 mg/kg intramuscularly): (-)
- Body weight development (young rats; 2,5 mg/kg intramuscularly): -
- Liver weights (young rats; 2,5 mg/kg intramuscularly): 0
- Thymus weight (young rats; 2,5 mg/kg intramuscularly): ---

SMILES: CC(C)=CCC[C@H](C(=O)O)[C@@H]1CC[C@]2(C)C3=C(CC[C@@]12C)[C@@]1(C)CCC(=O)C(C)(C)[C@@H]1CC3 [β-Elemonic acid, 13α, 14β, 17α, 20S,-3-Oxo-lanosta-8,24-dien-21-carboxylic acid]
- Inhibition effect (%) (CVF paw edema; 1 mg/kg p.o.): -24%
- Inhibition effect (%) (CVF paw edema; 10 mg/kg p.o.): -32%
- Inhibition effect (%) (CVF paw edema; 100 mg/kg p.o.): -49%
- ED30 (CVF paw edema): 3.98 mg/kg
- Blood picture Leucocytes (young rats; 100 mg/kg orally): 0
- Blood picture Lymphocytes (young rats; 100 mg/kg orally): 0
- Body weight development (young rats; 100 mg/kg orally): (-)
- Liver weights (young rats; 100 mg/kg orally): 0
- Thymus weight (young rats; 100 mg/kg orally): 0
- Blood picture Leucocytes (young rats; 316 mg/kg orally): 0
- Blood picture Lymphocytes (young rats; 316 mg/kg orally): 0
- Body weight development (young rats; 316 mg/kg orally): (-)
- Liver weights (young rats; 316 mg/kg orally): 0
- Thymus weight (young rats; 316 mg/kg orally): (-)
- Inhibiting effect (%) (carrageenin paw edema; 1 mg/kg p.o.): -7%
- Inhibiting effect (%) (carrageenin paw edema; 10 mg/kg p.o.): -21%
- Inhibiting effect (%) (carrageenin paw edema; 100 mg/kg p.o.): -33%
- selectivity ratio [1, 5]: 1160
- selectivity ratio [1, 6]: 68
- Therapeutic indices 1 and 2 compared with comparison substances (in words) ([1]; vs phenylbutazone and indomethacin): several times higher
- LD50 [2, 7]: 4640 mg/kg
- LD50 ([2]; po, peroral, read-out: Acute peroral toxicity): 4.64 mg/kg
- inhibition values (%) (adjuvant arthritis [4]; 14th day p.i., 1 mg/kg p.o.): +36%
- inhibition values (%) (adjuvant arthritis [4]; 14th day p.i., 10 mg/kg p.o.): -13%
- inhibition values (%) (adjuvant arthritis [4]; 14th day p.i., 100 mg/kg p.o.): -38%
- inhibition values (%) (adjuvant arthritis [4]; 17th day p.i., 1 mg/kg p.o.): -31%
- inhibition values (%) (adjuvant arthritis [4]; 17th day p.i., 10 mg/kg p.o.): -42%
- inhibition values (%) (adjuvant arthritis [4]; 17th day p.i., 100 mg/kg p.o.): -81%
- inhibition values (in words) (adjuvant arthritis [4]; therapeutic application beginning ten days after induction): pronounced inhibition values
- aggravating side-effects (rats): no occurrences of aggravating side-effects
- Effect (ulcer induction) (stomach mucosa; 10 mg/kg p.o.): 0
- Effect (ulcer induction) (stomach mucosa; 100 mg/kg p.o.): 0
- Effect (ulcer induction) (stomach mucosa; 316 mg/kg p.o.): 0
- Threshold dose Acute stomach mucous tolerability (stomach mucosa): 316.00 mg/kg
- inhibition values (%) (adjuvant arthritis [3]; 14th day p.i., 1 mg/kg p.o.): -55%
- inhibition values (%) (adjuvant arthritis [3]; 14th day p.i., 10 mg/kg p.o.): -62%
- inhibition values (%) (adjuvant arthritis [3]; 14th day p.i., 100 mg/kg p.o.): -165%
- inhibition values (%) (adjuvant arthritis [3]; 17th day p.i., 1 mg/kg p.o.): -38%
- inhibition values (%) (adjuvant arthritis [3]; 17th day p.i., 10 mg/kg p.o.): -47%
- inhibition values (%) (adjuvant arthritis [3]; 17th day p.i., 100 mg/kg p.o.): -92%
- ED50 (adjuvant arthritis [3]): 4.64 mg/kg
- adrenal gland weights (adrenal gland): inside the normal limits
